{"source": "patent US20150126582A1", "about": "“Combination Treatment of Multiple Myeloma” (Sevion Therapeutics, Inc., priority 2012, published 2015)", "key": {"[1]": {"system": "RPMI 8226 myeloma cells", "assay": "RPMI 8226 multiple myeloma subcutaneous tumors in SCID mice, 6 weeks of dosing", "details": "for tumor growth inhibited compared to control nanoparticles: end of 6 weeks of dosing", "method": "SCID mice are injected subcutaneously with RPMI 8226 cells. […] Groups of six SCID/CB17 mice (3-5 weeks old) are injected with 12 million RPMI 8226 myeloma cells in 200 μL PBS in their right flank and treatment is initiated when the tumours reached a minimum size of 10 mm^3.\nControl mice are injected intravenously two times per week with PEI complexes containing pCpG-mcs (empty vector) and control siRNA at a dose of 0.375 mg (nucleic acid)/kg. Mice receiving SNS01-T were injected intra-venously two times per week at 0.375 mg/kg. Mice treated with lenalidomide received 5 doses per week by intra-peritoneal injection of lenalidomide (Celgene) at doses of 15 mg/kg or 50 mg/kg. Mice receiving both SNS01-T and lenalidomide were dosed 2×/week with SNS01-T by intra-venous injection at 0.375 mg/kg and 5× per week with lenalidomide by intra-peritoneal injection at either 15 mg/kg or 50 mg/kg. […] Tumor volume is measured for all the mice in each group at least twice weekly."}, "[2]": {"system": "human myeloma tumors derived from RPMI 8226 cells", "assay": "Additional study: RPMI 8226 myeloma tumors in mice, 2 cycles of treatment, 102 days", "type": "in vivo", "procedure": "In an additional study, mice implanted with human myeloma tumors derived from RPMI 8226 cells were randomized into 4 groups and treated with control nanoparticles, or, either SNS01-T (0.375 mg/kg; i.v., twice per week), lenalidomide (50 mg/kg; i.p., 5× per week) or both. The mice received 2 cycles of treatment, 6 weeks and 5 weeks respectively, with an 11 day rest period between cycles. Mice, whose tumors were undetectable at the end of cycle 1, received no drug treatment in cycle 2 unless tumor reappeared. The mice were monitored for 2 weeks after the end of the second cycle of treatment. The total length of the study was 102 days."}}, "data": [{"smiles": "Nc1cccc2c1CN(C1CCC(=O)NC1=O)C2=O", "note": "(racemic) [lenalidomide, 3-(4-amino-oxo-1,3-dihydro-isoindol-2-yl)-piperidine-2,6-dione]", "values": [{"measurement": "tumor growth inhibited compared to control nanoparticles", "setting": "[1]; lenalidomide 15 mg/kg i.p. 5 doses/week (alone, or with SNS01-T 0.375 mg/kg i.v. 2x/week)", "value": 51, "unit": "%"}, {"measurement": "tumor growth inhibited compared to control nanoparticles", "setting": "[1]; lenalidomide 50 mg/kg i.p. 5 doses/week (alone, or with SNS01-T 0.375 mg/kg i.v. 2x/week)", "value": 78, "unit": "%"}, {"measurement": "surviving animals with undetectable tumors", "setting": "[1]; end of 6 weeks, lenalidomide alone, 15 mg/kg or 50 mg/kg i.p. 5x/week", "value": "No surviving animals"}, {"measurement": "median survival", "setting": "[1]; lenalidomide 15 mg/kg i.p. 5x/week", "value": 53, "unit": "days"}, {"measurement": "tumor growth inhibited compared to control nanoparticles", "setting": "[2]; end of the second cycle of dosing, lenalidomide 50 mg/kg i.p. 5x per week (alone, or with SNS01-T 0.375 mg/kg i.v. twice per week)", "value": 34, "unit": "%"}, {"measurement": "median survival", "setting": "[2]; lenalidomide 50 mg/kg i.p. 5x per week, study length 102 days", "value": 95, "unit": "days"}]}]}
